# Data published in paper PMC5218480 (PLoS ONE, 2017).
# System: MV-4-11 cells
# Assay: Gene expression microarray analysis (Affymetrix PrimeView) and GSEA
# Format: cell-based, human
# Design: RFU PODN (11730768_x_at) / Fold change /veh PODN (11730768_x_at) / RFU LINC00158 (11744669_a_at) / Fold change /veh LINC00158 (11744669_a_at) / RFU DUSP10 (11751237_a_at) / Fold change /veh DUSP10 (11751237_a_at) / RFU ID3 (11757404_x_at) / Fold change /veh ID3 (11757404_x_at) / RFU PLEKHG5 (11737974_s_at) / Fold change /veh PLEKHG5 (11737974_s_at) / RFU LRRC4B (11730491_at) / Fold change /veh LRRC4B (11730491_at) / RFU GIMAP4 (11747438_a_at) / Fold change /veh GIMAP4 (11747438_a_at) / RFU KRT8 (11758183_x_at) / Fold change /veh KRT8 (11758183_x_at) / RFU CNN1 (11734310_a_at) / Fold change /veh CNN1 (11734310_a_at) / RFU VPS37D (11726825_at) / Fold change /veh VPS37D (11726825_at) / RFU C10orf10 (11716522_x_at) / Fold change /veh C10orf10 (11716522_x_at) / RFU KIR2DL2 /// KIR2DL4 /// KIR2DL5A /// KIR2DL5B /// KIR2DS1 /// KIR2DS2 /// KIR2DS3 /// KIR2DS4 /// KIR3DL3 /// KIR3DL3 /// KIR3DS1 (11738374_at) / Fold change /veh KIR2DL2 /// KIR2DL4 /// KIR2DL5A /// KIR2DL5B /// KIR2DS1 /// KIR2DS2 /// KIR2DS3 /// KIR2DS4 /// KIR3DL3 /// KIR3DL3 /// KIR3DS1 (11738374_at) / RFU C1QL1 (11718748_at) / Fold change /veh C1QL1 (11718748_at) / RFU TMPRSS4 (11747572_a_at) / Fold change /veh TMPRSS4 (11747572_a_at) / RFU HAMP (11756126_x_at) / Fold change /veh HAMP (11756126_x_at) / RFU RNFT2 (11725882_a_at) / Fold change /veh RNFT2 (11725882_a_at) / RFU NR4A2 (11747474_a_at) / Fold change /veh NR4A2 (11747474_a_at) / RFU ABCC12 (11746883_a_at) / Fold change /veh ABCC12 (11746883_a_at) / RFU TMEM136 (11760407_x_at) / Fold change /veh TMEM136 (11760407_x_at) / RFU CLDN22 /// WWC2 (11732394_at) / Fold change /veh CLDN22 /// WWC2 (11732394_at) / RFU HLA-DPB1 (11760878_x_at) / Fold change /veh HLA-DPB1 (11760878_x_at) / RFU SPINT1 (11716480_a_at) / Fold change /veh SPINT1 (11716480_a_at) / RFU GAP43 (11754022_s_at) / Fold change /veh GAP43 (11754022_s_at) / RFU A4GNT (11735810_at) / Fold change /veh A4GNT (11735810_at) / RFU PRB3 (11715151_x_at) / Fold change /veh PRB3 (11715151_x_at) / RFU TUBB4B (11761932_at) / Fold change /veh TUBB4B (11761932_at) / RFU CAPN14 (11732068_a_at) / Fold change /veh CAPN14 (11732068_a_at) / RFU TMCC2 (11721928_a_at) / Fold change /veh TMCC2 (11721928_a_at) / RFU IRGQ (11745062_a_at) / Fold change /veh IRGQ (11745062_a_at) / RFU FAM174B (11720279_a_at) / Fold change /veh FAM174B (11720279_a_at) / RFU TMPRSS4 (11748680_a_at) / Fold change /veh TMPRSS4 (11748680_a_at) / RFU FAM212B (11763350_a_at) / Fold change /veh FAM212B (11763350_a_at) / RFU PLEKHG5 (11743358_a_at) / Fold change /veh PLEKHG5 (11743358_a_at) / RFU ZSCAN30 (11745921_a_at) / Fold change /veh ZSCAN30 (11745921_a_at) / RFU CMKLR1 (11741424_a_at) / Fold change /veh CMKLR1 (11741424_a_at) / RFU LOC101060620 /// MAPK8IP1 (11723275_at) / Fold change /veh LOC101060620 /// MAPK8IP1 (11723275_at) / RFU SPTSSB (11747773_x_at) / Fold change /veh SPTSSB (11747773_x_at) / RFU PRSS12 (11739890_at) / Fold change /veh PRSS12 (11739890_at) / RFU BIN1 (11741810_x_at) / Fold change /veh BIN1 (11741810_x_at) / RFU WNT11 (11732464_a_at) / Fold change /veh WNT11 (11732464_a_at) / RFU C10orf10 (11716521_a_at) / Fold change /veh C10orf10 (11716521_a_at) / RFU C5orf56 (11738089_at) / Fold change /veh C5orf56 (11738089_at) / RFU CYB561 (11721691_x_at) / Fold change /veh CYB561 (11721691_x_at) / RFU ANKRD19P (11752326_a_at) / Fold change /veh ANKRD19P (11752326_a_at) / RFU OR2T12 /// OR2T33 /// OR2T8 (11738714_s_at) / Fold change /veh OR2T12 /// OR2T33 /// OR2T8 (11738714_s_at) / RFU VCAN (11748164_a_at) / Fold change /veh VCAN (11748164_a_at) / RFU JSRP1 (11732532_at) / Fold change /veh JSRP1 (11732532_at) / RFU KRTAP10-11 (11738290_x_at) / Fold change /veh KRTAP10-11 (11738290_x_at) / RFU MYO3A (11730013_a_at) / Fold change /veh MYO3A (11730013_a_at) / RFU EBF3 (11725865_a_at) / Fold change /veh EBF3 (11725865_a_at) / RFU CAMK2N1 (11719241_x_at) / Fold change /veh CAMK2N1 (11719241_x_at) / RFU C5orf56 (11738088_a_at) / Fold change /veh C5orf56 (11738088_a_at) / RFU OLFML3 (11715873_a_at) / Fold change /veh OLFML3 (11715873_a_at) / RFU LOC100653217 /// NTM (11731650_a_at) / Fold change /veh LOC100653217 /// NTM (11731650_a_at) / RFU MAPK11 (11762145_a_at) / Fold change /veh MAPK11 (11762145_a_at) / RFU FIZ1 (11724087_x_at) / Fold change /veh FIZ1 (11724087_x_at) / RFU OASL (11726364_x_at) / Fold change /veh OASL (11726364_x_at) / RFU SOX15 (11748057_x_at) / Fold change /veh SOX15 (11748057_x_at) / RFU CD79A (11719716_a_at) / Fold change /veh CD79A (11719716_a_at) / RFU HIST1H1D (11736915_at) / Fold change /veh HIST1H1D (11736915_at) / RFU CASKIN2 (11723855_a_at) / Fold change /veh CASKIN2 (11723855_a_at) / RFU LOC730098 (11760151_x_at) / Fold change /veh LOC730098 (11760151_x_at) / RFU OR4N2 (11742367_at) / Fold change /veh OR4N2 (11742367_at) / RFU PRRT2 (11749266_a_at) / Fold change /veh PRRT2 (11749266_a_at) / RFU SNX32 (11753110_a_at) / Fold change /veh SNX32 (11753110_a_at) / RFU CDHR5 (11726645_a_at) / Fold change /veh CDHR5 (11726645_a_at) / RFU RCAN1 (11760418_a_at) / Fold change /veh RCAN1 (11760418_a_at) / RFU FAM167A (11723789_a_at) / Fold change /veh FAM167A (11723789_a_at) / RFU FAM26E (11764081_at) / Fold change /veh FAM26E (11764081_at) / RFU ISYNA1 (11749810_s_at) / Fold change /veh ISYNA1 (11749810_s_at) / RFU ACY1 (11761880_at) / Fold change /veh ACY1 (11761880_at) / RFU 11764098_at / Fold change /veh 11764098_at / RFU SAMD14 (11745864_x_at) / Fold change /veh SAMD14 (11745864_x_at) / RFU NPB (11741838_a_at) / Fold change /veh NPB (11741838_a_at) / RFU TMPRSS6 (11731388_a_at) / Fold change /veh TMPRSS6 (11731388_a_at) / RFU KRTAP10-2 (11738614_at) / Fold change /veh KRTAP10-2 (11738614_at) / RFU ARHGAP8 /// PRR5-ARHGAP8 (11727945_x_at) / Fold change /veh ARHGAP8 /// PRR5-ARHGAP8 (11727945_x_at) / RFU KRTAP5-7 /// NADSYN1 (11734609_at) / Fold change /veh KRTAP5-7 /// NADSYN1 (11734609_at) / RFU RASL12 (11751679_a_at) / Fold change /veh RASL12 (11751679_a_at) / RFU CDKN2B (11736163_a_at) / Fold change /veh CDKN2B (11736163_a_at) / RFU PRF1 (11729649_at) / Fold change /veh PRF1 (11729649_at) / RFU, ZNF638 /// ZNF638-IT1 / Fold change vs veh, ZNF638 /// ZNF638-IT1 / RFU, PANK3 / Fold change vs veh, PANK3 / RFU, SH3YL1 / Fold change vs veh, SH3YL1 / RFU, ZEB2 / Fold change vs veh, ZEB2 / RFU, NRIP1 / Fold change vs veh, NRIP1 / RFU, PTTG1IP / Fold change vs veh, PTTG1IP / RFU, CAPN2 / Fold change vs veh, CAPN2 / RFU, MED14 / Fold change vs veh, MED14 / RFU, SNORA58 / Fold change vs veh, SNORA58 / RFU, C1orf63 / Fold change vs veh, C1orf63 / RFU, LRRFIP1 / Fold change vs veh, LRRFIP1 / RFU, NDUFAF7 / Fold change vs veh, NDUFAF7 / RFU, SLC12A2 / Fold change vs veh, SLC12A2 / RFU, IBTK / Fold change vs veh, IBTK / RFU, ESF1 / Fold change vs veh, ESF1 / Fold change vs veh, TMEM50B / RFU, TAOK1 / Fold change vs veh, TAOK1 / RFU, ACBD3 / Fold change vs veh, ACBD3 / RFU, TMA16 / Fold change vs veh, TMA16 / RFU, RWDD3 / Fold change vs veh, RWDD3 / RFU, BCAT1 / Fold change vs veh, BCAT1 / RFU, EDEM3 / Fold change vs veh, EDEM3 / RFU, TMEM33 / Fold change vs veh, TMEM33 / RFU, WDR75 / Fold change vs veh, WDR75 / RFU, AHCTF1 / Fold change vs veh, AHCTF1 / RFU, TFRC / Fold change vs veh, TFRC / RFU, ZDHHC17 / Fold change vs veh, ZDHHC17 / RFU, NOM1 / Fold change vs veh, NOM1 / RFU, ARL8B / Fold change vs veh, ARL8B / RFU, ZBTB11 / Fold change vs veh, ZBTB11 / RFU, TAMM41 / Fold change vs veh, TAMM41 / RFU, KIAA1704 /// LOC100996395 / Fold change vs veh, KIAA1704 /// LOC100996395 / RFU, ING1 / Fold change vs veh, ING1 / RFU, TRMT61B / Fold change vs veh, TRMT61B / RFU, FUBP3 / Fold change vs veh, FUBP3 / RFU, TP53 / Fold change vs veh, TP53 / RFU, TNKS2 / Fold change vs veh, TNKS2 / RFU, ZFP14 / Fold change vs veh, ZFP14 / RFU, ACTR2 / Fold change vs veh, ACTR2 / RFU, PPP3R1 / Fold change vs veh, PPP3R1 / RFU, PIK3R1 / Fold change vs veh, PIK3R1 / RFU, HNRNPA1 / Fold change vs veh, HNRNPA1 / RFU, RNF170 / Fold change vs veh, RNF170 / RFU, ZNF28 / Fold change vs veh, ZNF28 / RFU, RNGTT / Fold change vs veh, RNGTT / RFU, OGT / Fold change vs veh, OGT / RFU, BRD1 / Fold change vs veh, BRD1 / RFU, MARS / Fold change vs veh, MARS / RFU, ZNF655 / Fold change vs veh, ZNF655 / RFU, FAHD1 / Fold change vs veh, FAHD1 / RFU, BDP1 / Fold change vs veh, BDP1 / RFU, LRRCC1 / Fold change vs veh, LRRCC1 / RFU, ARID1A / Fold change vs veh, ARID1A / RFU, ZNF146 / Fold change vs veh, ZNF146 / RFU, ZNF330 / Fold change vs veh, ZNF330 / RFU, GPN3 / Fold change vs veh, GPN3 / RFU, C9orf123 / Fold change vs veh, C9orf123 / RFU, N4BP2L2 / Fold change vs veh, N4BP2L2 / RFU, ARFIP1 / Fold change vs veh, ARFIP1 / RFU, FAM179B / Fold change vs veh, FAM179B / RFU, BCL10 / Fold change vs veh, BCL10 / RFU, UHRF1BP1L / Fold change vs veh, UHRF1BP1L / RFU, BET1 / Fold change vs veh, BET1 / RFU, CNOT2 / Fold change vs veh, CNOT2 / RFU, ZNF268 / Fold change vs veh, ZNF268 / Fold change vs veh, ZNF507 / RFU, DGCR2 / Fold change vs veh, DGCR2 / RFU, WDSUB1 / Fold change vs veh, WDSUB1 / Fold change vs veh, HSP90B1 /// MIR3652 / RFU, ADSS / Fold change vs veh, ADSS / RFU, GK / Fold change vs veh, GK / RFU, ZNF148 / Fold change vs veh, ZNF148 / RFU, TAF9 / Fold change vs veh, TAF9 / RFU, SLC1A5 / Fold change vs veh, SLC1A5 / RFU, SLMO2 / Fold change vs veh, SLMO2 / RFU, ABCC4 / Fold change vs veh, ABCC4 / RFU, LOC101060439 /// RAP1B / Fold change vs veh, LOC101060439 /// RAP1B / RFU, RFX7 / Fold change vs veh, RFX7 / RFU, GTPBP10 / Fold change vs veh, GTPBP10 / RFU, CNEP1R1 / Fold change vs veh, CNEP1R1 / RFU, BIVM-ERCC5 /// ERCC5 / Fold change vs veh, BIVM-ERCC5 /// ERCC5 / RFU, ILF3 / Fold change vs veh, ILF3 / RFU 11762660_at / Fold change /veh 11762660_at / RFU VCAN (11757783_s_at) / Fold change /veh VCAN (11757783_s_at) / RFU DDX43 (11728927_at) / Fold change /veh DDX43 (11728927_at) / RFU KRT8 (11758188_x_at) / Fold change /veh KRT8 (11758188_x_at) / RFU NKD1 (11759106_at) / Fold change /veh NKD1 (11759106_at) / RFU SRD5A1 (11742802_a_at) / Fold change /veh SRD5A1 (11742802_a_at) / RFU TPSAB1 /// TPSB2 (11721975_s_at) / Fold change /veh TPSAB1 /// TPSB2 (11721975_s_at) / RFU GSTM3 (11746129_a_at) / Fold change /veh GSTM3 (11746129_a_at) / RFU IL23R (11737362_x_at) / Fold change /veh IL23R (11737362_x_at) / RFU TMEM51 (11727254_a_at) / Fold change /veh TMEM51 (11727254_a_at) / RFU PIWIL2 (11732686_x_at) / Fold change /veh PIWIL2 (11732686_x_at) / RFU ORM1 (11744905_x_at) / Fold change /veh ORM1 (11744905_x_at) / RFU CCDC152 (11743942_at) / Fold change /veh CCDC152 (11743942_at) / RFU ECM1 (11717891_a_at) / Fold change /veh ECM1 (11717891_a_at) / RFU IL23R (11748794_a_at) / Fold change /veh IL23R (11748794_a_at) / RFU TNFAIP8L3 (11732012_x_at) / Fold change /veh TNFAIP8L3 (11732012_x_at) / RFU MBOAT4 (11741988_at) / Fold change /veh MBOAT4 (11741988_at) / RFU 11764193_at / Fold change /veh 11764193_at / RFU TMEM53 (11763286_at) / Fold change /veh TMEM53 (11763286_at) / RFU MAGEB2 (11727129_at) / Fold change /veh MAGEB2 (11727129_at) / RFU TMEM200A (11744735_a_at) / Fold change /veh TMEM200A (11744735_a_at) / RFU CCDC152 (11751479_a_at) / Fold change /veh CCDC152 (11751479_a_at) / RFU FAM211A (11726209_a_at) / Fold change /veh FAM211A (11726209_a_at) / RFU RGS16 (11746705_a_at) / Fold change /veh RGS16 (11746705_a_at) / RFU VCAN (11755009_s_at) / Fold change /veh VCAN (11755009_s_at) / RFU RHOB (11743442_s_at) / Fold change /veh RHOB (11743442_s_at) / RFU RGS16 (11720943_a_at) / Fold change /veh RGS16 (11720943_a_at) / RFU RGS16 (11720944_at) / Fold change /veh RGS16 (11720944_at) / RFU, VPS4B / Fold change vs veh, VPS4B / RFU, CREB1 / Fold change vs veh, CREB1 / RFU, DNAJC13 / Fold change vs veh, DNAJC13 / RFU, GNAQ / Fold change vs veh, GNAQ / RFU, CDK5R1 / Fold change vs veh, CDK5R1 / RFU, ZRANB3 / Fold change vs veh, ZRANB3 / RFU, CUL4A / Fold change vs veh, CUL4A / RFU, CCNY / Fold change vs veh, CCNY / RFU, UFL1 / Fold change vs veh, UFL1 / RFU, COG3 / Fold change vs veh, COG3 / RFU, DIAPH2 / Fold change vs veh, DIAPH2 / RFU, SKA2 / Fold change vs veh, SKA2 / RFU, AFF3 / Fold change vs veh, AFF3 / RFU, LMF1 / Fold change vs veh, LMF1 / RFU, IPO11 / Fold change vs veh, IPO11 / RFU, DFFB / Fold change vs veh, DFFB / RFU, FOXP1 / Fold change vs veh, FOXP1 / RFU, CARD8 / Fold change vs veh, CARD8 / RFU, STRN3 / Fold change vs veh, STRN3 / RFU, ADK / Fold change vs veh, ADK / RFU, RASSF2 / Fold change vs veh, RASSF2 / RFU, WIPF1 / Fold change vs veh, WIPF1 / RFU, LARP1B / Fold change vs veh, LARP1B / RFU, RASA1 / Fold change vs veh, RASA1 / RFU, RB1 / Fold change vs veh, RB1 / RFU, PPFIA1 / Fold change vs veh, PPFIA1 / RFU, MAT2A / Fold change vs veh, MAT2A / RFU, CCT5 / Fold change vs veh, CCT5 / RFU, WDR92 / Fold change vs veh, WDR92 / RFU, CUX1 / Fold change vs veh, CUX1 / RFU, TTC7A / Fold change vs veh, TTC7A / RFU, TMEM135 / Fold change vs veh, TMEM135 / RFU, DEPTOR / Fold change vs veh, DEPTOR / RFU, CPM / Fold change vs veh, CPM / RFU, DNAJB6 / Fold change vs veh, DNAJB6 / RFU, CACNA2D3 / Fold change vs veh, CACNA2D3 / RFU, DTX4 / Fold change vs veh, DTX4 / RFU, TFCP2 / Fold change vs veh, TFCP2 / RFU, GMCL1 /// GMCL1P1 / Fold change vs veh, GMCL1 /// GMCL1P1 / RFU, AEBP2 / Fold change vs veh, AEBP2 / RFU, SNHG1 /// SNORD22 /// SNORD25 /// SNORD26 /// SNORD27 /// SNORD28 /// SNORD29 /// SNORD31 / Fold change vs veh, SNHG1 /// SNORD22 /// SNORD25 /// SNORD26 /// SNORD27 /// SNORD28 /// SNORD29 /// SNORD31 / Fold change (Aza/veh), C12orf56 (ProbeSet 11735607_a_at) / Fold change (ACY-1035/veh), C12orf56 (ProbeSet 11735607_a_at) / Fold change (Aza/veh), FGFR1OP (ProbeSet 11751329_s_at) / Fold change (ACY-1035/veh), FGFR1OP (ProbeSet 11751329_s_at) / Fold change (Aza/veh), VPS36 (ProbeSet 11739960_a_at) / Fold change (ACY-1035/veh), VPS36 (ProbeSet 11739960_a_at) / RFU SYPL1 (11715823_x_at) / Fold change /veh SYPL1 (11715823_x_at) / RFU IGFBP7 (11715501_s_at) / Fold change /veh IGFBP7 (11715501_s_at) / RFU REEP3 (11722064_at) / Fold change /veh REEP3 (11722064_at) / RFU IGLL1 (11728026_x_at) / Fold change /veh IGLL1 (11728026_x_at): dose or concentration left out as unconfirmed
# Details: ProbeSet 11722022_s_at; LIST D
smiles,measurement,value
Nc1ccc(-c2cccs2)cc1NC(=O)c1ccc2c(c1)cc(C1CC1)n2CCN1CCOCC1 [ACY-1035],"Fold change vs veh, CDK5R1",0.91
